According to US11390617B2, “Methods of treating non-Hodgkin lymphoma using 2-(2,6-dioxopiperidin-3-yl)-4-((2-fluoro-4-((3-morpholinoazetidin-1-yl)methyl)benzyl)amino)isoindoline-1,3-dione” (Celgene Corporation, priority 2019, dated 2022):
pEC50, pIC50: −log10 of the molar value.

How the values were obtained:
Experiment in all cases: NHL cell line viability/apoptosis 384-well flow cytometry assay
Format in all cases: cell-based
OCI-LY7 = OCI-LY7 (DLBCL), 120 hours
Procedure: (§1) The following exemplary anti-proliferative assay uses exemplary non-Hodgkin lymphoma (NIL) cell lines (including diffuse large B-cell lymphoma (DLBCL), follicular lymphoma (FL), and mantle cell lymphoma (MCL)) (Table 5). The in vitro growth inhibitory activity of Compound 1 described herein was evaluated using a 384-well flow cytometry assay.
(§2) The cell lines in Table 5 were plated in 384-well flat bottom plates and assessed with increasing concentrations of compound ranging from 0.00015 to 10 μM or dimethyl sulfoxide (DMSO) control. The final concentration of DMSO was 0.1% (v/v). Following the addition of Compound 1 or DMSO and incubation for 120 hours, cell number and cell death were analyzed by flow cytometry (Attune®, Thermo Fisher) using Annexin V and the live-cell impermeant DNA dye, DRAQ7. Phosphatidylserine translocates from the inner layer to the outer layer of the cell membrane early in apoptosis and Annexin V binds to the exposed phosphatidylserine found on the surface of an apoptotic cell. The vital dye DRAQ7 is excluded by intact live cells and only stains cells that have died as a result of apoptosis or necrosis.
(§3) Flow cytometry data analysis was then performed using the Flow Jo_v10 software to determine the number of viable cells (Annexin V and DRAQ7 double negative staining cells) and percentage of apoptotic cells (Annexin V positive cells) for each condition. The live cell count for every concentration was normalized to the DMSO control (considered as 100%) to calculate the percentage of viable cells remaining after treatment and graphed using GraphPad Prism 7.03. The IC50 (50% inhibitory concentration) and Emax (maximum efficacy achieved) values were then calculated by performing nonlinear regression curve fitting using log(inhibitor) vs. normalized response—variable slope analysis on GraphPad Prism 7.03. Area under the curve (AUC) was calculated by performing area under curve analysis on GraphPad Prism 7.03. Similarly, for apoptosis analysis, the percentage of apoptosis combining both “early” (Annexin V positive and DRAQ7 negative) and “late” apoptosis (Annexin V and DRAQ7 positive) cell gates relative to DMSO was graphed using GraphPad Prism 7.03. The AUC, EC50 (concentration of Compound 1 that produces half-maximal apoptosis response) and Ymax (maximal percentage of apoptosis achieved) values from apoptosis curves were calculated by performing area under curve analysis and nonlinear regression curve fitting using log(agonist) vs. normalized response—Variable slope analysis on GraphPad Prism 7.03.
(§4) In Table 6, dose-response proliferation curves for the panel of NHL cell lines and non-linear curve-fit regression were used to determine IC50, AUC, and Emax for % viable cells (Emax for viability varies between 100 at low doses and 0 at high doses, which corresponds to inhibition of all viable cells), and dose-response apoptosis curves were used to determine the EC50, AUC, and Ymax for % apoptosis (Ymax for apoptosis varies from 0 at low doses and 100 at higher doses which corresponds to death of all cells). Tumor cells were exposed to serial dilutions (0.00015 to 10 μM) of Compound 1 or dimethyl sulfoxide (DMSO) control for 5 days. Viability and apoptosis for all cell lines was determined by Annexin V/[…] flow cytometry.

DB = details: 120 hours
Procedure: as §1, §2, §3, §4

TMD8 = TMD8 (DLBCL), 120 hours
Procedure: as §1, §2, §3, §4

DOHH2 = DOHH2 (FL), 120 hours
Procedure: as §1, §2, §3, §4

HT = HT (DLBCL), 120 hours
Procedure: as §1, §2, §3, §4

SU-DHL-6 = SU-DHL-6 (DLBCL), 120 hours
Procedure: as §1, §2, §3, §4

OCI-LY19 = OCI-LY19 (DLBCL), 120 hours
Procedure: as §1, §2, §3, §4

RC-K8 = RC-K8 (DLBCL), 120 hours
Procedure: as §1, §2, §3, §4

WSU-DLCL = WSU-DLCL (DLBCL), 120 hours
Procedure: as §1, §2, §3, §4

U-2904 = U-2904 (DLBCL), 120 hours
Procedure: as §1, §2, §3, §4

SU-DHL-10 = SU-DHL-10 (DLBCL), 120 hours
Procedure: as §1, §2, §3, §4

SU-DHL-16 = SU-DHL-16 (DLBCL), 120 hours
Procedure: as §1, §2, §3, §4

[1] = Homo sapiens, read-out: IC50 (% Viable Cells)
[2] = read-out: IC50 (% Viable Cells)

SMILES: O=C1CC[C@H](N2C(=O)c3cccc(NCc4ccc(CN5CC(N6CCOCC6)C5)cc4F)c3C2=O)C(=O)N1 [Compound 1, (S)-2-(2,6-dioxopiperidin-3-yl)-4-((2-fluoro-4-((3-morpholinoazetidin-1-yl)methyl)benzyl)amino)isoindoline-1,3-dione]
- pEC50 (OCI-LY7; Homo sapiens): 7.79
- pIC50 (OCI-LY7; [1]): 8.19
- AUC (% Viable Cells) (OCI-LY7): 48.18
- AUC (Apoptosis) (OCI-LY7): 682.7
- Emax (% Viable Cells) (OCI-LY7): 4.191%
- Ymax (Apoptosis) (OCI-LY7): 71.18%
- AUC (% Viable Cells) (DB): 941.4
- AUC (Apoptosis) (DB): 80.31
- Emax (% Viable Cells) (DB): 89.46%
- Ymax (Apoptosis) (DB): 11.62%
- pEC50 (DB; Homo sapiens): 7.16
- pIC50 (DB; [1]): 5.00
- pEC50 (TMD8; Homo sapiens): 8.21
- pIC50 (TMD8; [1]): 8.61
- AUC (% Viable Cells) (TMD8): 4.187
- AUC (Apoptosis) (TMD8): 963.3
- Emax (% Viable Cells) (TMD8): 0.245%
- Ymax (Apoptosis) (TMD8): 97.2%
- AUC (% Viable Cells) (DOHH2): 6.902
- AUC (Apoptosis) (DOHH2): 923.9
- Emax (% Viable Cells) (DOHH2): 0.2066%
- Ymax (Apoptosis) (DOHH2): 95.1%
- pEC50 (DOHH2; Homo sapiens, DOHH-2): 7.76
- pIC50 (DOHH2; Homo sapiens, DOHH-2, read-out: IC50 (% Viable Cells)): 8.55
- AUC (% Viable Cells) (HT): 396.7
- AUC (Apoptosis) (HT): 225.3
- Emax (% Viable Cells) (HT): 30.39%
- Ymax (Apoptosis) (HT): 25.16%
- pEC50 (HT; Homo sapiens): 7.18
- pIC50 (HT; [1]): 6.50
- pEC50 (SU-DHL-6; Homo sapiens): 6.98
- pIC50 (SU-DHL-6; [1]): 7.49
- AUC (% Viable Cells) (SU-DHL-6): 19.94
- AUC (Apoptosis) (SU-DHL-6): 920.7
- Emax (% Viable Cells) (SU-DHL-6): 0.2469%
- Ymax (Apoptosis) (SU-DHL-6): 95.92%
- pEC50 (OCI-LY19; Homo sapiens): 6.55
- pIC50 (OCI-LY19; [1]): 7.53
- AUC (% Viable Cells) (OCI-LY19): 72.49
- AUC (Apoptosis) (OCI-LY19): 706.2
- Emax (% Viable Cells) (OCI-LY19): 3.228%
- Ymax (Apoptosis) (OCI-LY19): 80.91%
- pEC50 (RC-K8; Homo sapiens, RCK8): 7.13
- pIC50 (RC-K8; Homo sapiens, RCK8, read-out: IC50 (% Viable Cells)): 8.47
- AUC (% Viable Cells) (RC-K8): 115.7
- AUC (Apoptosis) (RC-K8): 349.2
- Emax (% Viable Cells) (RC-K8): 10.06%
- Ymax (Apoptosis) (RC-K8): 26.31%
- AUC (% Viable Cells) (WSU-DLCL): 341.9
- AUC (Apoptosis) (WSU-DLCL): 565.1
- pEC50 (WSU-DLCL): 7.74
- Emax (% Viable Cells) (WSU-DLCL): 27.83%
- Ymax (Apoptosis) (WSU-DLCL): 59.91%
- pIC50 (WSU-DLCL; [2]): 6.85
- AUC (% Viable Cells) (U-2904): 334.1
- AUC (Apoptosis) (U-2904): 456.1
- pEC50 (U-2904): 5.48
- Emax (% Viable Cells) (U-2904): 7.609%
- Ymax (Apoptosis) (U-2904): 77.39%
- pIC50 (U-2904; [2]): 6.70
- pEC50 (SU-DHL-10; Homo sapiens, SU-DHL10): 7.40
- pIC50 (SU-DHL-10; Homo sapiens, SU-DHL10, read-out: IC50 (% Viable Cells)): 8.21
- AUC (% Viable Cells) (SU-DHL-10): 10.36
- AUC (Apoptosis) (SU-DHL-10): 903
- Emax (% Viable Cells) (SU-DHL-10): 0.6716%
- Ymax (Apoptosis) (SU-DHL-10): 92.27%
- pEC50 (SU-DHL-16; Homo sapiens): 6.18
- pIC50 (SU-DHL-16; [1]): 6.81
- AUC (% Viable Cells) (SU-DHL-16): 149.7
- AUC (Apoptosis) (SU-DHL-16): 492.6
- Emax (% Viable Cells) (SU-DHL-16): 7.137%
- Ymax (Apoptosis) (SU-DHL-16): 60.79%
